In US11000033B2, “Ketone or oxime compound, and herbicide” (NISSAN CHEMICAL CORPORATION, priority 2014, dated 2021):

Columns and labels:
Assay type in all cases: in vivo
Galium spurium = experiment: Test Example 5: herbicidal effect by foliage application, plastic box (symbol Q); conditions: 320 g/ha, 3 weeks after application
Procedure, shortened: (§1)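 Emulsion formulation, diluted with water to the intended rate, was applied uniformly to leaves by small sprayer. Recipients were 14-day greenhouse-grown seedlings (25° C. to 30° C.). Assessment followed at 3 weeks.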

Stellaria media = experiment: Test Example 4: herbicidal effect by soil treatment (symbol P); conditions: application herbicide amount 320 g/ha
Procedure, shortened: (§2)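 Seeds were sown in sterilized diluvial soil, covered with about 1.5 cm of soil, and the soil surface was sprayed with a water-diluted emulsion of the compound at a predetermined rate. Plants grew in a greenhouse at 25° C. to 30° C.; effects were scored visually 3 weeks after application.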

Abutilon theophrasti = experiment: Test Example 5: herbicidal effect by foliage application, plastic box (symbol M); conditions: 320 g/ha, 3 weeks after application
Procedure, shortened: as §1

beet [1] = experiment: Test Example 4: effect on crop by soil treatment (symbol f); conditions: application herbicide amount 320 g/ha
Procedure, shortened: (§3)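 Diluvial soil (sterilized) in boxes; seeds placed spot-wise alongside weed species; ~1.5 cm covering soil. Greenhouse, 25–30° C.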

rice plant = experiment: Test Example 5: effect on crop by foliage application, plastic box (symbol b); conditions: 320 g/ha, 3 weeks after application
Procedure, shortened: (§4)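 Crop and weed seeds sown in spots in sterilized diluvial soil in plastic boxes and covered with about 1.5 cm soil. Plants raised in a greenhouse at 25° C. to 30° C. for foliar application.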

Alopecurus myosuroides = experiment: Test Example 5: herbicidal effect by foliage application, plastic box (symbol J); conditions: 320 g/ha, 3 weeks after application
Procedure, shortened: as §1

[2] = system: Echinochloa oryzacola Vasing.; experiment: Test Example 1: herbicidal activity, application before weed generation in submerged conditions (symbol A); conditions: application herbicide amount 320 g/ha
Procedure, shortened: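 Application before weed emergence: an aqueous dilution of the emulsion formulation was poured onto the surface of 4 cm-deep floodwater on the day of sowing. Effect was judged after 3 weeks (greenhouse, 25–30 °C).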

corn = experiment: Test Example 4: effect on crop by soil treatment (symbol c); conditions: application herbicide amount 320 g/ha
Procedure, shortened: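 Crop seed is sown in spots together with several weed species in a box of sterilized diluvial soil. It is covered by about 1.5 cm of soil and kept in a greenhouse held between 25° C. and 30° C.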

transplanted rice plant = experiment: Test Example 1: effect on crop, application before weed generation in submerged conditions (symbol a); conditions: application herbicide amount 320 g/ha
Procedure, shortened: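 Rice at 2.5 leaf stage transplanted into submerged soil (4 cm depth) sown with three weed species; herbicide applied before weed emergence.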

[3] = system: Echinochloa crus-galli var. crus-galli; experiment: Test Example 3: herbicidal effect by foliage application, Wagner pot (symbol H); conditions: application herbicide amount 320 g/ha
Procedure, shortened: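 Plants sown in submerged alluvial soil (water depth 0.1–0.5 cm) in a 25–30 °C greenhouse and grown 14 days. An emulsion of the compound diluted in water to a set herbicide amount was sprayed uniformly on foliage. Effect on each plant scored 3 weeks after application.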

wheat = experiment: Test Example 5: effect on crop by foliage application, plastic box (symbol e); conditions: 320 g/ha, 3 weeks after application
Procedure, shortened: as §4

Veronica persica = experiment: Test Example 4: herbicidal effect by soil treatment (symbol R); conditions: application herbicide amount 320 g/ha
Procedure, shortened: as §2

beet [4] = experiment: Test Example 5: effect on crop by foliage application, plastic box (symbol f); conditions: 320 g/ha, 3 weeks after application
Procedure, shortened: as §4

soybean [5] = experiment: Test Example 4: effect on crop by soil treatment (symbol d); conditions: application herbicide amount 320 g/ha
Procedure, shortened: as §3

soybean [6] = experiment: Test Example 5: effect on crop by foliage application, plastic box (symbol d); conditions: 320 g/ha, 3 weeks after application
Procedure, shortened: as §4

Row | SMILES | Q: Galium spurium, herbicidal effect (criteria of Test Example 1) (Galium spurium) | P: Stellaria media, herbicidal effect grade (Stellaria media) | M: Abutilon theophrasti, herbicidal effect (criteria of Test Example 1) (Abutilon theophrasti) | f: beet, effect on crop grade (beet [1]) | b: directly sowed rice plant, effect on crop (criteria of Test Example 1) (rice plant) | J: Alopecurus myosuroides, herbicidal effect (criteria of Test Example 1) (Alopecurus myosuroides) | Herbicidal effect grade, A: Echinochloa oryzacola Vasing. [2] | c: corn, effect on crop grade (corn) | Effect grade on crop, a: transplanted rice plant (transplanted rice plant) | herbicidal effect on H (Echinochloa crus-galli var. crus-galli), grade 0-5 [3] | e: wheat, effect on crop (criteria of Test Example 1) (wheat) | R: Veronica persica, herbicidal effect grade (Veronica persica) | f: beet, effect on crop (criteria of Test Example 1) (beet [4]) | d: soybean, effect on crop grade (soybean [5]) | d: soybean, effect on crop (criteria of Test Example 1) (soybean [6]) | Herbicidal effect grade, P: Stellaria media (Stellaria media) | Effect on crop grade, f: beet (beet [1]) | Effect on crop grade, c: corn (corn) | Herbicidal effect grade, R: Veronica persica (Veronica persica) | Effect on crop grade, d: soybean (soybean [5])
1 | CON=C(C)CC1CC(O)=C(c2c(C)cc(Br)cc2OC)C1=O (stereo not drawn) [6-076, 2-(4-bromo-2-methoxy-6-methylphenyl)-3-hydroxy-5-{2-(methoxyimino)propyl}cyclopent-2-enone] | 3 (Herbicidal ratio of 40% or higher and lower than 70%) | 0 (Herbicidal ratio of 5% or lower (almost no effect)) | 5 (Herbicidal ratio of 90% or more (almost completely withered)) | 0 (Herbicidal ratio of 5% or lower (almost no effect)) | 5 (Herbicidal ratio of 90% or more (almost completely withered)) | 5 (Herbicidal ratio of 90% or more (almost completely withered)) | 5 (Herbicidal ratio of 90% or more (almost completely withered)) | 5 (Herbicidal ratio of 90% or more (almost completely withered)) | 5 (Herbicidal ratio of 90% or more (almost completely withered)) | 5 (Herbicidal ratio of 90% or more (almost completely withered)) | 5 (Herbicidal ratio of 90% or more (almost completely withered)) | 0 (Herbicidal ratio of 5% or lower (almost no effect)) | 0 (Herbicidal ratio of 5% or lower (almost no effect)) | 0 (Herbicidal ratio of 5% or lower (almost no effect)) | 1 (Herbicidal ratio of 5% or higher and lower than 20%) | – | – | – | – | –
2 | CON=C(C)CC1CC(O)=C(c2c(C)cc(-c3ccsc3)cc2C)C1=O (stereo not drawn) [6-106] | 3 (Herbicidal ratio of 40% or higher and lower than 70%) | – | 0 (Herbicidal ratio of 5% or lower (almost no effect)) | – | 3 (Herbicidal ratio of 40% or higher and lower than 70%) | 5 (Herbicidal ratio of 90% or more (almost completely withered)) | 5 (Herbicidal ratio of 90% or more (almost completely withered)) | – | 5 (Herbicidal ratio of 90% or more (almost completely withered)) | 4 (Herbicidal ratio of 70% or higher and lower than 90%) | 3 (Herbicidal ratio of 40% or higher and lower than 70%) | – | 0 (Herbicidal ratio of 5% or lower (almost no effect)) | – | 1 (Herbicidal ratio of 5% or higher and lower than 20%) | 0 (Herbicidal ratio of 5% or lower (almost no effect)) | 0 (Herbicidal ratio of 5% or lower (almost no effect)) | 0 (Herbicidal ratio of 5% or lower (almost no effect)) | 0 (Herbicidal ratio of 5% or lower (almost no effect)) | 0 (Herbicidal ratio of 5% or lower (almost no effect))
